Where two headings read alike, the source gives them in different places.
Tests used:
Assay type in all cases: cell-based
PC-3 cells = experiment: Prostate cancer cell line growth inhibition assay, PC-3; settings: read-out: AR negative PC-3 GI50
Procedure: Prostate Cancer Cell Line Growth Inhibition Assays: The PC-3, DU-145, LNCaP, C4-2, and 22Rv1 PC cell line growth inhibition assays have been described previously (Fancher et al., Assay Drug Dev Technol. 2016, 14:453-477; Fancher et al., Assay Drug Dev Technol. 2019, 17:364-386). On day 1, each PC cell line was harvested, counted, and seeded into two 384-well assay plates, a time zero (T0) and a time 72 h (T72) plate. […] On day 2, 25 μL of the CellTiter-Glo® (CTG) (Promega Corporation, Madison, WI) detection reagent was dispensed into the wells of the TO assay plate using a Matrix electronic multichannel pipette, and the RLUs were captured on the SpectraMax® M5e (Molecular Devices LLC, Sunnyvale, CA) microtiter plate reader. […] On day 5, 25 μL of the CTG detection reagent was dispensed into the wells of the T72 assay plate using a Matrix electronic multichannel pipette, and the RLU's were captured on the SpectraMax® M5e microtiter plate reader platform.
For the 96-well AR-LBD H^3-DHT radioligand binding assay, eight minimum and maximum plate control wells were utilized to normalize the data. […] To normalize the 72 h compound exposure PC growth inhibition data, the signals from the compound treated wells were processed and expressed as % of the T72 DMSO plate controls. […]

C4-2 cells = experiment: Prostate cancer cell line growth inhibition assay, C4-2; settings: C4-2, 72 h; read-out: AR positive C4-2 GI50
Procedure: (§1) Prostate Cancer Cell Line Growth Inhibition Assays: The PC-3, DU-145, LNCaP, C4-2, and 22Rv1 PC cell line growth inhibition assays have been described previously (Fancher et al., Assay Drug Dev Technol. 2016, 14:453-477; Fancher et al., Assay Drug Dev Technol. 2019, 17:364-386). On day 1, each PC cell line was harvested, counted, and seeded into two 384-well assay plates, a time zero (T0) and a time 72 h (T72) plate. PC cell lines were all seeded at 1,000 cells per well in 45 μL of tissue culture media in uncoated white clear bottom 384-well assay plates (VWR, #82050-076) using a Matrix electronic multichannel pipette (Thermo Fisher Scientific, Waltham, MA) and cultured overnight at 37° C., 5% CO2, and 95% humidity. On day 2, 25 μL of the CellTiter-Glo® (CTG) (Promega Corporation, Madison, WI) detection reagent was dispensed into the wells of the TO assay plate using a Matrix electronic multichannel pipette, and the RLUs were captured on the SpectraMax® M5e (Molecular Devices LLC, Sunnyvale, CA) microtiter plate reader. Also on day 2, 5 μL of compounds were transferred into the test wells of the T72 384-well assay plates which were returned to the incubator for 72 h. Control wells received DMSO alone. On day 5, 25 μL of the CTG detection reagent was dispensed into the wells of the T72 assay plate using a Matrix electronic multichannel pipette, and the RLU's were captured on the SpectraMax® M5e microtiter plate reader platform.
(§2) For the 96-well AR-LBD H^3-DHT radioligand binding assay, eight minimum and maximum plate control wells were utilized to normalize the data. […] To normalize the 72 h compound exposure PC growth inhibition data, the signals from the compound treated wells were processed and expressed as % of the T72 DMSO plate controls. IC50 and GI50 values for each of the bioassays were calculated using GraphPad Prism 9 software to plot and fit data to curves using the Sigmoidal dose response variable slope equation Y=Bottom+[Top-Bottom]/[1+10^(Log EC50−X)*HillSlope].

LNCaP cells = experiment: Prostate cancer cell line growth inhibition assay, LNCaP; settings: Homo sapiens, 72 h, read-out: AR positive LnCaP GI50
Procedure: as §1, §2

22Rv1 cells = experiment: Prostate cancer cell line growth inhibition assay, 22Rv1; settings: Homo sapiens, 22Rv1, 72 h; read-out: AR positive 22Rv1 GI50
Procedure: as §1, §2

AR-LBD and TIF2 = biological target: T1, AR-LBD and TIF2 (Homo sapiens, UniProt P10275); experiment: AR-TIF2 mammalian 2-hybrid assay; settings: HEK 293 cells; read-out: Inhibition DHT-induced AR-TIF2 mammalian 2 hybrid assay IC50
T1 construct: AR-LBD amino acids 658-919 expressed as a fusion protein with Gal4-DBD; expressed in transfected cells; host or cells: HEK 293, transient co-transfection
T1 sequence (P10275 658-919): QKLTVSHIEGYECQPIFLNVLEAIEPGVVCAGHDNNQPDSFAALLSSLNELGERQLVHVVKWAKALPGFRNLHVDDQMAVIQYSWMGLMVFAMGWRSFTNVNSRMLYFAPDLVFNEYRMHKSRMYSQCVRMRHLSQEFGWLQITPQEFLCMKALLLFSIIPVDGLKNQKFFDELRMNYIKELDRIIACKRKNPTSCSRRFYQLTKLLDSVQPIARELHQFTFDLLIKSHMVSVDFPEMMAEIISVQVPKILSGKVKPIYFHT
Source text: (§3) TIF2 and SRC1 Mammalian 2-Hybrid Assays: The 5×GAL4-TATA-luciferase reporter plasmid was a gift from Dr. Richard Maurer from the Oregon Health and Science University (Gonzalez et al., Cell 1989, 59:675-80), and constructs pGAL4-hAR-658-919 (AR-LBD amino acids 658-919 expressed as a fusion protein with Gal4-DBD) (Askew et al., J Biol Chem 2007, 282:25801-16), pVP16-SRC1 (full-length SRC1 expressed as a fusion with VP16 activation domain) (He et al., J Biol Chem 1999, 274:37219-25) and pVP16-Empty vectors were kindly provided to us by Dr. Elizabeth Wilson, from UNC Chapel Hill. pVP16-TIF2 was generated as described previously (Fancher et al., Assay Drug Dev Technol. 2019, 17:364-386). HEK 293 cells were transiently co-transfected with 5 ng of pGal4-AR-LBD, 10 ng of either pVP16-TIF2 or pVP16-SRC1, and 20 ng of the 5×Gal4-TATA-Luc reporter as described previously (Ibid.). HEK 293 cells were bulk co-transfected with the three plasmids that had been individually incubated with FuGENE® 6 transfection agent (Fugent LLC, Middleton, WI) at a 3:1 ratio for 25 min at room temperature (RT) in serum free media (SFM) and then combined with HEK 293 cells that were suspended in DMEM (Cellgro10013CV) with 2 mM L-glutamine (Invitrogen) that was supplemented with 10% fetal bovine serum, and 5,000 cells in a volume of 40 μL were seeded into the wells of white opaque 384-well assay plates (Greiner Bio-one, #781080) and cultured overnight at 37° C., 5% CO2, and 95% humidity. […] 25 μL of BrightGlo® reagent (Promega, Madison, WI) was added to the plate and the relative luminescence units (RLUs) were captured on a SpectraMax® M5e microtiter plate reader (Molecular Devices, LLC, San Jose, CA).

AR-LBD and SRC1 = biological target: T2, AR-LBD and SRC1 (Homo sapiens, UniProt P10275); experiment: AR-SRC1 mammalian 2-hybrid assay; settings: HEK 293 cells; read-out: Inhibition DHT-induced AR-SRC1 mammalian 2 hybrid assay IC50
T2 construct: AR-LBD amino acids 658-919 expressed as a fusion protein with Gal4-DBD; expressed in transfected cells; host or cells: HEK 293, transient co-transfection
T2 sequence (P10275 658-919): T1 sequence (P10275 658-919)
Source text: as §3

## Cc1ccccc1-c1cc(O)c2c(c1)CN(c1nc(C(N)=O)cs1)CCO2 [Compound S1-1]
PC-3 cells; 72 h, listed as 1
  GI50: 61.1 µM
C4-2 cells
  GI50: 30.7 µM
LNCaP cells
  GI50: 24.4 µM
22Rv1 cells
  GI50: 42.5 µM
AR-LBD and TIF2
  IC50: 0.91 µM
AR-LBD and SRC1
  IC50: 0.38 µM

## Cc1c(-c2ccccc2F)[nH]c2ccc(CNC(=O)CCc3cn[nH]c3)cc12 [Compound S3-11]
PC-3 cells; Homo sapiens, PC-3, 72 h
  GI50: 28.4 µM
C4-2 cells
  GI50: 6.92 µM
LNCaP cells
  GI50: 6.35 µM
22Rv1 cells
  GI50: 13.2 µM
AR-LBD and TIF2
  IC50: 0.89 µM
AR-LBD and SRC1
  IC50: 0.6 µM

## Cc1nsc(NC(=O)N2CCC(Sc3ccccc3C)CC2)n1 [Compound S2-6]
C4-2 cells
  GI50: 8.66 µM
LNCaP cells
  GI50: 15.6 µM
22Rv1 cells
  GI50: 17.9 µM
AR-LBD and TIF2
  IC50: 0.05 µM
AR-LBD and SRC1
  IC50: 0.29 µM

Source: patent US20260083751A1, “ALLOSTERIC MODULATORS OF ANDROGEN RECEPTOR COACTIVATOR RECRUITMENT FOR CRPC THERAPY” (University of Pittsburgh – Of the Commonwealth System of …, priority 2022, published 2026)
